{
  "source": "patent US20210369714A1",
  "about": "“Prevention and Treatment of Osteoarthritis by Inhibition of Insulin Growth Factor-1 Signaling” (The Regents of the University of California, priority 2018, published 2021)",
  "system": "ATDC5 cells",
  "test": "IGF1 stimulated MMP-9/MMP-13 expression in chondrocytes (quantitative real-time PCR)",
  "assay_type": "cell-based",
  "conditions": "preliminary dose finding experiments, free inhibitor, data not shown",
  "description": "Here, we investigated the therapeutic role of the IGF1R inhibitor (NVP-AEW541) in PTOA development. NVP-AEW541 (IGF1Ri) was incorporated into the polyethylene glycol dimethacrylate (PEG-DMA) hydrogel carriers (microrods) for prolonged local delivery in the joint space following ACL rupture (ACLR). […] The left knee served as the control (CON). 1 day after the TCO, vehicle (Veh) or microrods loaded with inhibitor (IGF1Ri/rod) was injected into the injured knee. […] As determined by μCT, compared with the CON knee, ACLR decreased BV/TV (24%) in the subchondral bone, while the IGF1Ri/rod treatment (Tx) prevented the bone loss. […] As indicated by IHC, ACLR increased the number of PCNA positive articular chondrocytes and MMP-13 production in the Veh-treated injured knee, but these effects were blunted in the IGF1Ri-treated injured knee. Moreover, ACLR increased the production of VEGF, resulting in vessel formation within articular cartilage (as indicated by CD31) in the Veh -treated injured knee, but these effects were blocked in the IGF1Ri-treated injured knee.\nFIG. 7. […] The mRNA levels of MMP-9 (upper panel) and MMP-13 (lower panel) were determined by quantitative real-time PCR. […] Results are expressed as percentage of L-19 (house keeper gene) expression (mean±SD) of triplicate determinations. *: p<0.05 IGF-1 treated cultures vs. vehicle treated cultures.",
  "data": [
    {"smiles": "Cl.Cl.Nc1ncnc2c1c(-c1cccc(OCc3ccccc3)c1)cn2[C@H]1C[C@@H](CN2CCC2)C1", "note": "[NVP-AEW541, 7-[cis-3-(1-azetidinylmethyl)cyclobutyl]-5-[3-(phenylmethoxy)phenyl]-7H-pyrrolo[2,3-d]pyrimidin-4-amine, dihydrochloride]", "values": [
      {"measurement": "blocking IGF1 stimulated MMP9 and MMP13 expression", "value": "highly effective"}
    ]}
  ]
}
